Measurements: PubChem BioAssay AID248 (DTP/NCI, 2004)
Values joined by “and” are separate entries in the source; they are usually repeats but may differ in a detail not shown here. Identical values can stand only once. Inconclusive results and toxic doses are left out. Cut-off read from the data, not from the text of the source: active = T/C of 150% or more; inactive = T/C below 125%.

Test system: L1210 leukemia ip in BDF1 mice, survival T/C
Assay: NCI In Vivo Anticancer Drug Screen. Data for tumor model L1210 Leukemia (intraperitoneal) in B6D2F1 (BDF1) mice
Conditions: endpoint: mean survival time, higher = longer survival
Summary of the method: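 Transplanted-tumor mice were given test agent; controls received vehicle only. Survival readings from the two groups were divided (treated over control).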

[1] = dose: 6.25 mg/kg/injection, schedule: Q01DX009 (ip), vehicle: saline
[2] = dose: 12.5 mg/kg/injection, schedule: Q01DX009 (ip), vehicle: saline
[3] = dose: 25.0 mg/kg/injection, schedule: Q01DX009 (ip), vehicle: saline
[4] = dose: 100.0 mg/kg/injection, schedule: Q01DX009 (ip), vehicle: saline
[5] = dose: 200.0 mg/kg/injection, schedule: Q01DX009 (ip), vehicle: saline
[6] = dose: 400.0 mg/kg/injection, schedule: Q01DX009 (ip), vehicle: saline
[7] = dose: 100.0 mg/kg/injection, schedule: Q01DX009 (ip), vehicle: Klucel (hydroxypropylcellulose) (HPC)
[8] = dose: 200.0 mg/kg/injection, schedule: Q01DX009 (ip), vehicle: Klucel (hydroxypropylcellulose) (HPC)
[9] = dose: 400.0 mg/kg/injection, schedule: Q01DX009 (ip), vehicle: Klucel (hydroxypropylcellulose) (HPC)
[10] = dose: 100.0 mg/kg/injection, schedule: Q01DX009 (ip), vehicle: saline with Tween-80
[11] = dose: 200.0 mg/kg/injection, schedule: Q01DX009 (ip), vehicle: saline with Tween-80
[12] = dose: 50.0 mg/kg/injection, schedule: Q01DX009 (ip), vehicle: saline with Tween-80
[13] = dose: 100.0 mg/kg/injection, schedule: Q01DX001 (ip), vehicle: Klucel (hydroxypropylcellulose) (HPC)
[14] = dose: 200.0 mg/kg/injection, schedule: Q01DX001 (ip), vehicle: Klucel (hydroxypropylcellulose) (HPC)
[15] = dose: 400.0 mg/kg/injection, schedule: Q01DX001 (ip), vehicle: Klucel (hydroxypropylcellulose) (HPC)

Measured: T/C

O=C(O)CC(NC(=O)CP(=O)(O)O)C(=O)O (centres undefined)
inactive: dose: 0.39 mg/kg/injection, schedule: Q01DX009 (ip), vehicle: saline 104 % of control | dose: 0.78 mg/kg/injection, schedule: Q01DX009 (ip), vehicle: saline 96 % of control | dose: 1.56 mg/kg/injection, schedule: Q01DX009 (ip), vehicle: saline 100 % of control | dose: 3.12 mg/kg/injection, schedule: Q01DX009 (ip), vehicle: saline 100 % of control | [1] 100 % of control | [2] 98 % of control | [3] 93 % of control and 94 % of control | dose: 50.0 mg/kg/injection, schedule: Q01DX009 (ip), vehicle: saline 96 % of control and 98 % of control | [4] 104 % of control and 122 % of control | [5] 117 % of control and 122 % of control | dose: 225.0 mg/kg/injection, schedule: Q01DX009 (ip), vehicle: saline 113 % of control | dose: 240.0 mg/kg/injection, schedule: Q04DX003 (ip), vehicle: saline 113 % of control | dose: 250.0 mg/kg/injection, schedule: Q01DX009 (ip), vehicle: saline 109 % of control | dose: 275.0 mg/kg/injection, schedule: Q01DX009 (ip), vehicle: saline 109 % of control | dose: 343.0 mg/kg/injection, schedule: Q04DX003 (ip), vehicle: saline 117 % of control | [6] 89 % of control | dose: 490.0 mg/kg/injection, schedule: Q04DX003 (ip), vehicle: saline 113 % of control | dose: 700.0 mg/kg/injection, schedule: Q04DX003 (ip), vehicle: saline 119 % of control

Cc1ccc(N=C(C(=Nc2ccc(C)cc2)c2ccccc2)c2ccccc2)cc1
inactive: dose: 100.0 mg/kg/injection, schedule: Q04DX003 (ip), vehicle: saline with Tween-80 91 % of control | dose: 200.0 mg/kg/injection, schedule: Q04DX003 (ip), vehicle: saline with Tween-80 90 % of control | dose: 400.0 mg/kg/injection, schedule: Q04DX003 (ip), vehicle: saline with Tween-80 88 % of control

CCCCNC(=S)NCCCC
inactive: [7] 92 % of control | dose: 100.0 mg/kg/injection, schedule: Q04DX002 (ip), vehicle: Klucel (hydroxypropylcellulose) (HPC) 98 % of control | [8] 98 % of control | dose: 200.0 mg/kg/injection, schedule: Q04DX002 (ip), vehicle: Klucel (hydroxypropylcellulose) (HPC) 104 % of control

O=C(COCC(=O)N/N=C/C=C/c1ccccc1)N/N=C/C=C/c1ccccc1
inactive: [7] 96 % of control | [8] 104 % of control | [9] 95 % of control

CCS(=O)(=O)c1ccc(NC(=O)OC(C)(c2ccccc2)C2CCCCC2)cc1 (centres undefined)
inactive: dose: 100.0 mg/kg/injection, schedule: Q01DX001 (ip), vehicle: carboxymethylcellulose (CMC) 96 % of control | dose: 200.0 mg/kg/injection, schedule: Q01DX001 (ip), vehicle: carboxymethylcellulose (CMC) 91 % of control | dose: 400.0 mg/kg/injection, schedule: Q01DX001 (ip), vehicle: carboxymethylcellulose (CMC) 100 % of control

Cc1ccc(CSc2ssc(=S)c2-c2ccccc2)cc1
inactive: [10] 101 % of control | dose: 100.0 mg/kg/injection, schedule: Q04DX003 (ip), vehicle: acetone 99 % of control | [11] 97 % of control | dose: 200.0 mg/kg/injection, schedule: Q04DX003 (ip), vehicle: acetone 98 % of control | dose: 400.0 mg/kg/injection, schedule: Q01DX009 (ip), vehicle: saline with Tween-80 95 % of control | dose: 400.0 mg/kg/injection, schedule: Q04DX003 (ip), vehicle: acetone 91 % of control

c1ccc(-n2ncc3ccccc32)cc1
inactive: dose: 50.0 mg/kg/injection, schedule: Q01DX001 (ip), vehicle: saline with Tween-80 100 % of control | dose: 100.0 mg/kg/injection, schedule: Q01DX001 (ip), vehicle: saline with Tween-80 100 % of control | dose: 200.0 mg/kg/injection, schedule: Q01DX001 (ip), vehicle: saline with Tween-80 96 % of control

CC(C)N(CCC#N)C(=S)Nc1cccc(C(F)(F)F)c1
inactive: dose: 100.0 mg/kg/injection, schedule: Q01DX009 (ip), vehicle: other 102 % of control | dose: 200.0 mg/kg/injection, schedule: Q01DX009 (ip), vehicle: other 104 % of control | dose: 400.0 mg/kg/injection, schedule: Q01DX009 (ip), vehicle: other 103 % of control

O=C(Nc1ccc(CC2=NCCCN2)cc1)c1ccc(C(=O)Nc2ccc(CC3=NCCCN3)cc2)cc1
inactive: dose: 0.5 mg/kg/injection, schedule: Q01DX Z (ip), vehicle: water 95 % of control | dose: 1.0 mg/kg/injection, schedule: Q01DX Z (ip), vehicle: water 103 % of control

CC1CC(C)(C)[N+]2=C(CCCC2)O1 (centres undefined)
inactive: [1] 96 % of control | [2] 94 % of control | [3] 103 % of control

CNS(=O)(=O)c1ccc(NC(=O)C(Cl)(Cl)Cl)cc1
inactive: dose: 100.0 mg/kg/injection, schedule: Q01DX001 (ip), vehicle: other 105 % of control | [7] 102 % of control | dose: 100.0 mg/kg/injection, schedule: Q04DX003 (ip), vehicle: other 101 % of control | dose: 200.0 mg/kg/injection, schedule: Q01DX001 (ip), vehicle: other 104 % of control | [8] 95 % of control | dose: 200.0 mg/kg/injection, schedule: Q04DX003 (ip), vehicle: other 101 % of control | dose: 400.0 mg/kg/injection, schedule: Q01DX001 (ip), vehicle: other 104 % of control | [9] 96 % of control | dose: 400.0 mg/kg/injection, schedule: Q04DX003 (ip), vehicle: other 98 % of control

COc1ccc(OC)c2ccccc12
inactive: dose: 50.0 mg/kg/injection, schedule: Q01DX005 (ip), vehicle: saline with Tween-80 101 % of control | dose: 100.0 mg/kg/injection, schedule: Q01DX005 (ip), vehicle: saline with Tween-80 101 % of control | dose: 200.0 mg/kg/injection, schedule: Q01DX005 (ip), vehicle: saline with Tween-80 111 % of control | dose: 400.0 mg/kg/injection, schedule: Q01DX005 (ip), vehicle: saline with Tween-80 98 % of control

C[As](C)[Se]CC1OC(O)C(O)C(O)C1O (centres undefined)
inactive: [12] 104 % of control

CC(CC(=O)NC(N)=O)(NC(N)=O)NC(N)=O
inactive: [13] 100 % of control | [14] 101 % of control | [15] 95 % of control

CCN(CC)CCNC(=O)c1ccc2nc(N)sc2c1
inactive: dose: 75.0 mg/kg/injection, schedule: Q01DX001 (ip), vehicle: saline 96 % of control | dose: 150.0 mg/kg/injection, schedule: Q01DX001 (ip), vehicle: saline 91 % of control

O=C(c1ccc(Br)cc1)C(O)O
inactive: [4] 102 % of control | dose: 100.0 mg/kg/injection, schedule: Q04DX003 (ip), vehicle: saline 121 % of control | [5] 97 % of control | dose: 200.0 mg/kg/injection, schedule: Q04DX003 (ip), vehicle: saline 101 % of control | [6] 102 % of control | dose: 400.0 mg/kg/injection, schedule: Q04DX003 (ip), vehicle: saline 106 % of control

CC(=O)Nc1ccc(C(C)(C)CC(=O)O)cc1[N+](=O)[O-]
inactive: [12] 90 % of control | [10] 87 % of control | [11] 87 % of control

Cc1ccc(S(=O)(=O)NCc2cccc([N+](=O)[O-])c2)cc1
inactive: [13] 102 % of control | [14] 96 % of control | [15] 96 % of control
